In PMC5431435, “A short artificial antimicrobial peptide shows potential to prevent or treat bone infections” (Scientific Reports, 2017):
Converted amounts (≈) assume the structure as drawn.

What was measured:
E. coli ATCC 25922 = assay: Broth microdilution MIC and plating MBC; format: cell-based; details: Escherichia coli, ATCC25922
Description: (§1) To determine the minimal inhibitory concentration (MIC), classical broth microdilution method was performed after protocols from Wiegand et al.[15]. The influence of cations was analyzed by using cation adjusted Mueller-Hinton bouillon II with 20–25 mg/l Ca^2+ and 10–12.5 mg/l Mg^2+ (MH^++; BBL, Germany) or Mueller-Hinton bouillon without cations (MH^−; Merck, Germany) (n = 4–8).
(§2) The maximal concentration of the AMPs was between 200–271 µg/ml. The differences in the AMP concentration are due to the purity of the peptides (absorption coefficient from 5.19 to 9.36).

E. faecalis ATCC 29212 = assay: Broth microdilution MIC and plating MBC; format: cell-based; details: Enterococcus faecalis, ATCC29212, MH++ (with cations), n = 4–8
Description: as §1, §2

P. aeruginosa ATCC 27853 = assay: Broth microdilution MIC and plating MBC; format: cell-based; details: Pseudomonas aeruginosa; for MIC: 37 °C, 18–24 h
Description: as §1, §2

S. aureus ATCC 29213 = assay: Broth microdilution MIC and plating MBC; format: cell-based; details: Staphylococcus aureus
Description: as §1, §2

S. epidermidis PIA 8400 = assay: Broth microdilution MIC and plating MBC; format: cell-based; details: Staphylococcus epidermidis; for MIC: 1–5 × 10^5 cfu/ml, 37 °C, 18–24 h; for MBC: plated on Columbia-agar overnight 37 °C
Description: as §1, §2

S. aureus MRSA = assay: Broth microdilution MIC and plating MBC, clinical isolate; format: cell-based; details: Staphylococcus aureus, MH++ (with cations), n = 4–8
Source text: (§3) The strains Escherichia coli (ATCC 25922), Enterococcus faecalis (ATCC 29212), Pseudomonas aeruginosa (ATCC 27853), Staphylococcus aureus (ATCC 29213) were used. In addition, following clinical isolates were used: Staphylococcus epidermidis (PIA 8400, isolated from blood cultures[48]), and two Staphylococcus aureus (MRSA and MSSA, both isolated from osteosyntheses material, kindly provided by Andrej Trampuz, Charité).
as §1, §2

S. aureus MSSA = assay: as above; format: cell-based; details: Staphylococcus aureus
Source text: as §3, §1, §2

planktonic S. aureus = assay: MIC by isothermal microcalorimetry, planktonic bacteria; format: cell-based, Staphylococcus aureus; details: Staphylococcus aureus; MH++, heat flow 24 hours, n = 3; read-out: MIC (calorimetry)
Description: Mueller-Hinton II bouillon with adjusted cations (MH^++; BBL, Germany), Mueller-Hinton bouillon with low cations (MH^+; with 3-4 mg/l Ca^2+ and 5-6 mg/l Mg^2+; Oxoid, Germany) and Mueller-Hinton bouillon without cations (MH^-; Merck, Germany). AMP2 concentrations of 2-33 μg/ml were tested with the three different bouillons and gentamicin concentrations of 0.125-2 μg/ml were analyzed with MH^++. Staphylococcus aureus (ATCC 29213, 300 μl with 10^5 cfu/ml) was added to each microcalorimetry glass ampoule (Waters; […] The ampoules were hermetically sealed and heat flow (W) was measured for 24 hours in the calorimeter TAM III (TA Instruments, USA). […] ROBU […], Germany) in MH^++ bouillon at 37 °C in an aerobe atmosphere for 24 hours. […] Beads were washed again and added to the glass ampoule with fresh MH^++ bouillon. The total heat (J) was measured for 48 hours in the calorimeter. A concentration, which inhibits minimum 90% of biofilm, can be defined as the minimal biofilm inhibitory concentration (MICB). All samples were tested with n = 6.

S. aureus (ATCC 29213) = assay: Zone of inhibition test of PDLLA-coated titanium wires; format: cell-based, Staphylococcus aureus; details: 10% w/w in poly(D,L-lactide) coating, n = 3, mean with standard deviation; day not given
Description: Titanium wires (diameter 1 mm, Synthes, USA) were coated with Poly(D,L-lactide) (PDLLA, Boehringer Ingelheim, Germany) and incorporated AMP2 at three different concentrations: 10% w/w, 20% w/w, or 30% w/w. Gentamicin/PDLLA (10% w/w) or PDLLA coated wires served as control. Briefly, 100 mg PDLLA was solved in 1.5 ml ethyl acetate and the wires were coated in a dipping procedure. Details of the coating were described previously. Three nails of each group were placed on Mueller-Hinton agar plates plated with S. aureus (ATCC 29213) and the zone of inhibition (ZOI) was quantified after 1, 3, 7, and 14 days using ImageJ software.

[1] = system: human primary osteoblast-like cells; format: cell-based
Description: (§4) (1) For the cytotoxicity test, 1 × 10^4 cells were seeded in 48-well plates with cultivation medium (CM) DMEM/Ham’s F-12 (D/H; Biochrom, Germany) + 10% fetal calf serum (FCS; Biochrom, Germany) + 1% penicillin/streptomycin (P/S; Biochrom, Germany) + 0.05 mM L-ascorbic-2 phosphate (L-Asc) + 0.05 mM β-glycerolphosphate (β-Glyc) and incubated overnight at 37 °C, 5% CO2 and 95% relative humidity. After adding the AMPs (3–542 µg/ml - depending on the AMP) or gentamicin (8–1024 µg/ml) in CM with 1% FCS, without Pen/Strep, cells were cultured for three days. Cell viability was determined with an AlamarBlue® assay before adding the AMPs and after 3 days. Alkaline phosphatase activity was measured on day 3.
Alamar Blue® (Biozol, Germany) was done according to the manufacturer’s instruction.

[2] = system: human primary osteoblast-like cells; format: cell-based; remark: listed apart in the source
Description: as §4

S. aureus biofilm = assay: Biofilm assay by microcalorimetry and plating (MBCB); format: cell-based, Staphylococcus aureus; details: 128 µg/ml daptomycin, calorimetry and plating (data not shown)
Description: To confirm MIC of the AMP2 by isothermal microcalorimetry, three different bouillons were tested: Mueller-Hinton II bouillon with adjusted cations (MH^++; BBL, Germany), Mueller-Hinton bouillon with low cations (MH^+; with 3–4 mg/l Ca^2+ and 5–6 mg/l Mg^2+; Oxoid, Germany) and Mueller-Hinton bouillon without cations (MH^−; Merck, Germany). AMP2 concentrations of 2–33 µg/ml were tested with the three different bouillons and gentamicin concentrations of 0.125–2 µg/ml were analyzed with MH^++. Staphylococcus aureus (ATCC 29213, 300 µl with 10^5 cfu/ml) was added to each microcalorimetry glass ampoule (Waters; Germany) containing 3.7 ml of AMP or gentamicin solution of (n = 3). The ampoules were hermetically sealed and heat flow (W) was measured for 24 hours in the calorimeter TAM III (TA Instruments, USA). For the biofilm assay, S. aureus biofilm was grown on glass beads (4 mm diameter, 60 µm pores; ROBU Glasfilter-Geräte, Germany) in MH^++ bouillon at 37 °C in an aerobe atmosphere for 24 hours. After washing with sodium chloride, beads were incubated with AMP2 (133, 267, 533 µg/ml) or daptomycin (128 µg/ml) in MH^++ bouillon for another 24 hours at 37 °C. Beads were washed again and added to the glass ampoule with fresh MH^++ bouillon. The total heat (J) was measured for 48 hours in the calorimeter. A concentration, which inhibits minimum 90% of biofilm, can be defined as the minimal biofilm inhibitory concentration (MICB). All samples were tested with n = 6.
Furthermore, the MBC for biofilms (MBCB) where 99.9% of all bacteria are killed was determined. After measurement, bouillon and glass beads were plated on CA plates and incubated for 24 hours at 37 °C in an aerobe atmosphere.

[3] = system: S. aureus internalized in human primary osteoblast-like cells; assay: Effect against internalized bacteria; format: cell-based, Staphylococcus aureus; details: 7.5 μg/ml, n = 7
Description: Human primary osteoblast-like cells were cultivated in 24-well plates with cultivation medium until they reached a minimum confluence of 80%. For the experiment, cells were washed and S. aureus (ATCC 29213) in cultivation medium added (~2 × 10^7 cfu/ml). After an incubation of 45 minutes, extracellular bacteria were killed using 200 µg/ml gentamicin dissolved in CM with 10% FCS, without P/S. After 1 hour incubation, gentamicin solution was removed, cells washed three times and AMP2 (33 and 67 µg/ml) in CM with only 1% FCS + no P/S added for 4 and 24 hours. As reference, 7.5 µg/ml rifampicin was used. All incubation steps were done in an incubator with 37 °C, 95% humidity and 5% CO2. For determination of the internalized bacteria, cells were lysed and the supernatant plated on CA plates. Experiment were done with n = 7.

[4] = ATCC27853, MH++ (with cations), n = 4–8
[5] = ATCC27853, MH− (without cations), n = 4

`CNC(C)C1CCC(N)C(OC2C(N)CC(N)C(OC3OCC(C)(O)C(NC)C3O)C2O)O1` (centres unmarked) [gentamicin] showed an MBC (E. coli ATCC 25922; MH++ (with cations), n = 4–8) of 2 µg/mL (≈ 4.19 µM), an MIC (E. coli ATCC 25922; MH− (without cations), 37 °C, 18–24 h, n = 4) of 1 µg/mL (≈ 2.09 µM) and an MIC (E. faecalis ATCC 29212; 37 °C, 5% CO2, 18–24 h) of 16 µg/mL (≈ 33.5 µM). It also gave an MBC (E. faecalis ATCC 29212) of 32 µg/mL (≈ 67 µM), an MIC (P. aeruginosa ATCC 27853; [4]) of 1 µg/mL (≈ 2.09 µM) and an MBC (P. aeruginosa ATCC 27853; [4]) of 4 µg/mL (≈ 8.38 µM). For the same compound, the MIC (P. aeruginosa ATCC 27853; [5]) was 0.25 µg/mL (≈ 0.523 µM), the MBC (P. aeruginosa ATCC 27853; [5]) was 1 µg/mL (≈ 2.09 µM) and the MBC (S. aureus ATCC 29213; ATCC29213, MH++ (with cations), n = 4–8) was 0.5 µg/mL (≈ 1.05 µM). The MBC (S. aureus ATCC 29213; ATCC29213, MH− (without cations), n = 4) was 1 µg/mL (≈ 2.09 µM), the MIC (S. aureus ATCC 29213; ATCC29213, MH++ (with cations), 37 °C, 18–24 h, n = 4–8) was 0.5 µg/mL (≈ 1.05 µM) and the MIC (S. epidermidis PIA 8400; PIA8400, MH++ (cation adjusted Mueller-Hinton bouillon II), n = 4–8) was 0.25 µg/mL (≈ 0.523 µM). It also gave an MBC (S. epidermidis PIA 8400; PIA8400, MH++ (with cations), n = 4–8) of 1 µg/mL (≈ 2.09 µM), an MIC (S. epidermidis PIA 8400; PIA8400, MH− (Mueller-Hinton bouillon without cations), n = 4) of 0.125 µg/mL (≈ 0.262 µM) and an MBC (S. epidermidis PIA 8400; PIA8400, MH− (without cations), n = 4) of 0.25 µg/mL (≈ 0.523 µM). For the same compound, the MIC (S. aureus MRSA) was > 32 µg/mL, the MBC (S. aureus MSSA; MH++ (with cations), n = 4–8) was 0.125 µg/mL (≈ 0.262 µM) and the MIC (S. aureus MSSA; MH++ (with cations), n = 4–8) was 0.125 µg/mL (≈ 0.262 µM). The MBC (S. aureus MSSA; MH− (without cations), n = 4) was 1 µg/mL (≈ 2.09 µM), the MIC (S. aureus MSSA; MH− (without cations), n = 4) was 0.25 µg/mL (≈ 0.523 µM) and the MIC (planktonic S. aureus) was 1 µg/mL (≈ 2.09 µM). For the same compound, the ZOI (S. aureus (ATCC 29213)) was 10.8 +/- 0.6 cm².
With “YRLRVKWKW [AMP1, 9mer cationic antimicrobial peptide … from an optimized peptide library]” the “concentrations with no negative effect on cell viability” value (from here on “concentrations with no negative effect”) [1] was < 100 µg/mL, the “concentrations with significant inhibition of viability compared to the control group” value [1] was ≥ 100 µg/mL and the “concentrations with significant inhibition of alkaline phosphatase activity compared to the control group” value [2] was “all concentrations”.
In the case of daptomycin [reference compound], the biofilm growth (S. aureus biofilm) was “completely inhibited”.
“RRRIKIRWY [AMP4, 9mer cationic antimicrobial peptide … from an optimized peptide library]” was tested, and the “concentrations with no negative effect” value [1] was < 251 µg/mL and the “concentrations with significant inhibition of viability compared to the control group” value [1] was ≥ 251 µg/mL.
For `CO[C@H]1/C=C/O[C@@]2(C)Oc3c(C)c(O)c4c(O)c(c(/C=N/N5CCN(C)CC5)c(O)c4c3C2=O)NC(=O)/C(C)=C\C=C\[C@H](C)[C@H](O)[C@@H](C)[C@@H](O)[C@@H](C)[C@H](OC(C)=O)[C@@H]1C` [rifampicin, reference compound], the “internalized bacteria compared to 0 μg/ml AMP [= 100%]” value ([3]; 4 h) was 15% and the “internalized bacteria compared to 0 μg/ml AMP [= 100%]” value ([3]; 24 h) was 0.0006%.
With “WRKFWKYLK [AMP5, 9mer cationic antimicrobial peptide … from an optimized peptide library]” the “concentrations with no negative effect” value [1] was < 63 µg/mL, the “concentrations with significant inhibition of viability compared to the control group” value [1] was ≥ 63 µg/mL and the “concentrations with significant inhibition of alkaline phosphatase activity compared to the control group” value [2] was ≥ 63 µg/mL.
“RTKKWIVWI [AMP3, 9mer cationic antimicrobial peptide … from an optimized peptide library]” was tested, and the “concentrations with no negative effect” value [1] was < 68 µg/mL and the “concentrations with significant inhibition of viability compared to the control group” value [1] was ≥ 68 µg/mL.
